Consider 1 compound from patent US20220249431A1, “ANTIMYCOTIC” (Karl-Franzens-Universität Graz, priority 2019, published 2022).

Experiment [1] has as its system C. albicans. Briefly: Minimal inhibitory concentration, planktonic cells (CLSI M27). The following applies: Candida albicans, growth reduced to 50% of untreated control. The experiment is classed as cell-based. As for the experimental part: (§1) The minimal inhibitory concentration (MIC) was determined following the standard Clinical and Laboratory Standards Institute (CLSI) protocol M27 (Rex JH, and Clinical and Laboratory Standards Institute (2008). Reference method for broth dilution antifungal susceptibility testing of yeasts: approved standard, 3rd ed. National Committee for Clinical Laboratory Standards, Wayne, Pa.) for yeast strains or the standard CLSI protocol […] (Clinical and Laboratory Standards Institute (2008). Reference method for broth dilution antifungal susceptibility testing of filamentous fungi. Clinical and Laboratory Standards Institute, Wayne, Pa.) for filamentous fungi. For yeast strains media was inoculated with an overnight culture to an OD600 of 0.001 (1^04 cells/mL). Serial dilutions of substances were added and cells were incubated at 37° C. without shaking for 48±1 h. MIC tests were performed in flat-bottom 96 well plates (Greiner Bio One, Austria) using 100 μL suspension per well sealed with gas-permeable foils. After incubation, OD490 values were measured using 96-well plate reader and growth capacity was analyzed by setting the corresponding control to 100%. Different flavones were randomly chosen and tested for their effects on planktonic cells and biofilms of C. albicans and C. glabrata to determine corresponding IC50 values (the concentration that is required to reduce growth (minimal inhibitory concentration=MIC) or biofilm formation (biofilm inhibitory concentration=BIC) to 50% compared to the untreated control).

The test system of experiment [2] is C. albicans. The experiment is described as follows: Checkerboard / combination assay, growth of planktonic cells (OD490). In kind it is cell-based, Candida albicans. As for the experimental part: The minimal inhibitory concentration (MIC) was determined following the standard Clinical and Laboratory Standards Institute (CLSI) protocol M27 (Rex JH, and Clinical and Laboratory Standards Institute (2008). Reference method for broth dilution antifungal susceptibility testing of yeasts: approved standard, 3rd ed. National Committee for Clinical Laboratory Standards, Wayne, Pa.) for yeast strains or the standard CLSI protocol M38 (Clinical and Laboratory Standards Institute (2008). Reference method for broth dilution antifungal susceptibility testing of filamentous fungi. Clinical and Laboratory Standards Institute, Wayne, Pa.) for filamentous fungi.
For yeast strains media was inoculated with an overnight culture to an OD600 of 0.001 (1^04 cells/mL). Serial dilutions of substances were added and cells were incubated at 37° C. without shaking for 48±1 h.
MIC tests were performed in flat-bottom 96 well plates (Greiner Bio One, Austria) using 100 μL suspension per well sealed with gas-permeable foils. After incubation, OD490 values were measured using 96-well plate reader and growth capacity was analyzed by setting the corresponding control to 100%.
For synergy testing of different combinations, checkerboard assays were performed. Therefore, serial dilutions of two different compounds were combined for MIC, BIC or BEC testing as described above. Antifungal activity of substances alone or in combination was determined by setting the corresponding control to 100%.

A further experiment relates to C. glabrata. Briefly: Minimal inhibitory concentration, planktonic cells (CLSI M27). The experiment is classed as cell-based, Candida glabrata. The following applies: Nakaseomyces glabratus, growth reduced to 50% of untreated control. Here is the method:
as §1

The test system of another experiment is C. albicans biofilm. The experiment is described as follows: Biofilm inhibition concentration (CTB staining). The experiment is classed as cell-based. Conditions: Candida albicans; C. albicans biofilm formation reduced to 50% of untreated control; read-out: BIC50. As for the experimental part:
The biofilm inhibition concentration (BIC) was determined as described in […] et al. (J Antimicrob Chemother 69(2014): 1035-1044). In short, RPMI medium was inoculated with an overnight culture to an OD (optical density) of 0.1, transferred to a U-bottom 96-well plate (MLS, Belgium) and treated with serial dilutions of substances. After the adherence phase (1 h, 37° C.), supernatant was removed, adherent cells were washed with PBS and fresh media (including substances) was added. Biofilms were then allowed to grow for 24 h at 37° C. Formed biofilms were then analyzed for their metabolic activity. Therefore, C. albicans biofilm cells were treated with CTB (cell titer Blue®; Promega, Germany), diluted 1:100 in PBS. After incubation for 1 h at 37° C. in the dark fluorescence intensity was measured using a 96-well plate reader (Ex: 535, Em: 590, sens 65). […] Sigma, Germany or ABCR, Germany) was used instead. Thereby, biofilm cells were treated with an XTT solution (0.25 mg/mL XTT+0.1 μM menadione in PBS) at 37° C. in the dark and OD490 was measured. As for MIC, biofilm inhibition was analyzed by setting the corresponding control to 100%. Different flavones were randomly chosen and tested for their effects on planktonic cells and biofilms of C. albicans and C. glabrata to determine corresponding IC50 values (the concentration that is required to reduce growth (minimal inhibitory concentration=MIC) or biofilm formation (biofilm inhibitory concentration=BIC) to 50% compared to the untreated control).

For a further experiment, the system named is C. glabrata biofilm. The experiment is described as follows: Biofilm inhibition concentration (XTT). Conditions: Nakaseomyces glabratus; C. glabrata biofilm formation reduced to 50% of untreated control; read-out: BIC50. In kind it is cell-based, Candida glabrata. As for the experimental part: In short, RPMI medium was inoculated with an overnight culture to an OD (optical density) of 0.1, transferred to a U-bottom 96-well plate (MLS, Belgium) and treated with serial dilutions of substances. After the adherence phase (1 h, 37° C.), supernatant was removed, adherent cells were washed with PBS and fresh media (including substances) was added. Biofilms were then allowed to grow for 24 h at 37° C. Formed biofilms were then analyzed for their metabolic activity. Therefore, C. albicans biofilm cells were treated with CTB (cell titer Blue®; Promega, Germany), diluted 1:100 in PBS. […] Sigma, Germany or ABCR, Germany) was used instead. Thereby, biofilm cells were treated with an XTT solution (0.25 mg/mL XTT+0.1 μM menadione in PBS) at 37° C. in the dark and OD490 was measured.

Molecules are shown by their SMILES. Values after ≈ are worked out from the molar mass of the structure shown.

On to `O=c1c(O)c(-c2ccccc2)oc2ccc(O)cc12` [3,6-dihydroxyflavone], for which the MIC50 worked out at 9.5 ± 0.1 µM (≈ 2.42 µg/mL) in the experiment on C. albicans [1] and 7.9 ± 1 µM (≈ 2.01 µg/mL) in the experiment with C. glabrata. The “effect on activity of caspofungin, growth of planktonic cells” value with C. albicans [2] (4.9 nM Caspo, 5 μM 3,6-DHF, preliminary data) was “enhances the activity of Caspofungin”. In addition, in the experiment with C. albicans [2] (3.1 μM 3,6-DHF with 0.4 μM miconazole or 0.5 μM fluconazole), the “effect on activity of azoles in vitro (growth inhibition)” value is “enhances the activity of azoles”. In addition, the figures for the IC50 with C. albicans biofilm and with C. glabrata biofilm were 55.2 ± 8.1 µM and 23.4 ± 9.7 µM, respectively.
